In paper PMC3389674, “Comparison of Soluble Guanylate Cyclase Stimulators and Activators in Models of Cardiovascular Disease Associated with Oxidative Stress” (Frontiers in Pharmacology, 2012):

Columns and labels:
sGC = molecular target: T1, sGC (Rattus norvegicus, UniProt P20595); assay: P-VASP formation in rat aortic smooth muscle cells; type: cell-based
T1 construct: in rat aortic smooth muscle cells; endogenous in cells; host or cells: primary rat aortic smooth muscle cells
T1 sequence (P20595 1-619): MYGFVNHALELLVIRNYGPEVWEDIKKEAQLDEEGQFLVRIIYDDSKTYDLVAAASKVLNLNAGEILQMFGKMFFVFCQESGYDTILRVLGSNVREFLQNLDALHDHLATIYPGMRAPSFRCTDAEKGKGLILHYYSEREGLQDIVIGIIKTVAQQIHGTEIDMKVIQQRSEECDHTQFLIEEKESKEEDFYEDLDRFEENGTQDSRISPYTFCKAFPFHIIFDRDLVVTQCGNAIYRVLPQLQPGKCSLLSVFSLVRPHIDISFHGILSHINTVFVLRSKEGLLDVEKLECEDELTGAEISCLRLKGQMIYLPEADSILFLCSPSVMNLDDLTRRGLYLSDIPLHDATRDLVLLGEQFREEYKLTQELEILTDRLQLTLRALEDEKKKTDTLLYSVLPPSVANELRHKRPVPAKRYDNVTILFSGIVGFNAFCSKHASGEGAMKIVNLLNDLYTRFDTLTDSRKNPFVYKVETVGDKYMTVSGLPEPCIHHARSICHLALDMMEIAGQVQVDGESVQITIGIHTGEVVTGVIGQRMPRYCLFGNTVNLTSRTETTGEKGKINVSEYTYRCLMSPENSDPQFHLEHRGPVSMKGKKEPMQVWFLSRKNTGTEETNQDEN
T1 sequence (P19686 1-690 partner): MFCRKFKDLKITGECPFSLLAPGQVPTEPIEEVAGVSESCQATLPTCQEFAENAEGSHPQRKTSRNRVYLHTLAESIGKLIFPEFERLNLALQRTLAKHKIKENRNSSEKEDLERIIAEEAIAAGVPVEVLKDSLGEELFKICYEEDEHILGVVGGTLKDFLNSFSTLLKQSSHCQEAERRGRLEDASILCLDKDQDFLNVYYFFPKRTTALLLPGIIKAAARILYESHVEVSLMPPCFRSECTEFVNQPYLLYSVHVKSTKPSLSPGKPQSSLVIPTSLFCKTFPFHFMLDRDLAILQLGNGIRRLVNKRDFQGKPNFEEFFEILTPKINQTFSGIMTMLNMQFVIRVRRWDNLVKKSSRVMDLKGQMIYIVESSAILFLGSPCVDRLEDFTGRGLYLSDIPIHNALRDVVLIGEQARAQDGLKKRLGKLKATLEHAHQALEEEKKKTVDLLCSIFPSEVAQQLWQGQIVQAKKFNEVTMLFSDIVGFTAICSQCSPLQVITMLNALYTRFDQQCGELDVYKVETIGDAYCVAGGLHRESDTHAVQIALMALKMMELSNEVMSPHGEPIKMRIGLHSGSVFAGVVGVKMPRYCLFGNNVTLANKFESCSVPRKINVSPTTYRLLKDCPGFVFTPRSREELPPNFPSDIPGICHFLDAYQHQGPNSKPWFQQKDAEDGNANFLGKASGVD
Experimental: The potency, efficacy, and mechanism of action of the sGC modulators GSK2181236A and BAY 60-4552 were assessed by measuring phosphorylation of the protein kinase G (PKG) substrate […] (VASP) in rat aortic smooth muscle cells. […] Dimethylsulfoxide (DMSO) vehicle or varying concentrations of GSK2181236A (2 pM to 1 μM) or BAY 60-4552 (15 nM to 100 μM) were then added. Following a 30 min incubation at 37°C, media was aspirated and the cells were rinsed with phosphate-buffered saline (PBS) and fixed with 4% formaldehyde in PBS by incubating at room temperature for 20 min. Cells were then washed with PBS and permeabilized for 10 min using 0.1% triton X-100 in PBS. Following PBS rinsing, the cells were blocked for 90 min at room temperature with Odyssey Blocking Buffer (LI-COR, Cambridge, UK). The buffer was aspirated and the cells were treated overnight at 4°C with primary antibody [(pSer^239) VASP, rabbit polyclonal Ab, Cell Signaling Technology, Danvers, MA, USA] diluted 1:500 in Odyssey Blocking Buffer. Following three washes with 0.05% Tween 20, the cells were treated for 1 h at room temperature with secondary antibody (IRDye® 800CW Donkey Anti-Rabbit IgG, LI-COR) diluted 1:2500 in Odyssey Blocking Buffer with 0.05% Tween 20. Following two washes with PBS, infrared fluorescence was measured using an Odyssey Infrared Imaging System (LI-COR).

SHR-SP isolated aorta = assay: vasoactivity of SHR-SP isolated aorta (ND, HSFD and after chronic treatment); design: species or system rat
Experimental: In separate studies, endothelial function was assessed following chronic (7 week) BAY 60-4552 or GSK2181236A treatment in SHR-SP on HSFD. SHR-SP fed either normal or HSFD served as controls. Rats were anesthetized and thoracic aorta were isolated and treated with KCl and phenylephrine as described above. Cumulative concentration-response curves to phenylephrine were obtained by adding 0.5 log unit increments (1 nM to 3 μM). Following several washes with KHB, each vessel was contracted to equilibrium with 0.3 μM phenylephrine and tone was reversed by adding cumulative amounts of carbachol at 0.5 log unit intervals (10 nM to 30 μM). Following several KHB washes, the tissues were again contracted to equilibrium with 0.3 μM phenylephrine and tone was reversed by adding cumulative amounts of SNP at 0.5 log unit intervals (0.1 nM to 3 μM). In separate tissues from both the normal and HSFD SHR-SP control groups, the direct vasodilatory effects of BAY 60-4552 and GSK2181236A were investigated. Contractile tone induced by 0.3 μM phenylephrine was reversed by adding cumulative concentrations of BAY 60-4552 or GSK2181236A to the tissue baths at log increments (0.1 nM to 10 μM).

[1] = HSFD + 0.3 mg/kg chronic treatment
[2] = HSFD + 3 mg/kg chronic treatment
[3] = HSFD + 0.1 mg/kg chronic treatment
[4] = HSFD + 1 mg/kg chronic treatment

Row | SMILES | EC50 (sGC; Control (no ODQ)) [nM] | Emax, P-VASP formation (sGC; Control (no ODQ)) [% DMSO] | rightward-shift of P-VASP concentration-response curve by ODQ (sGC; ODQ 10 μM vs control) [fold] | suppression of P-VASP maximal response by ODQ (trend) (sGC; ODQ 10 μM vs control) [%] | EC50 (sGC; ODQ (10 μM) pre-treatment) [nM] | Emax, P-VASP formation (sGC; ODQ (10 μM) pre-treatment) [% DMSO] | Carbachol Emax in aorta of chronically treated rats (SHR-SP isolated aorta; [1]) | Phenylephrine Emax in aorta of chronically treated rats (SHR-SP isolated aorta; [1]) [% KCl] | Sodium nitroprusside Emax in aorta of chronically treated rats (SHR-SP isolated aorta; [1]) | Carbachol Emax in aorta of chronically treated rats (SHR-SP isolated aorta; [2]) | Phenylephrine Emax in aorta of chronically treated rats (SHR-SP isolated aorta; [2]) [% KCl] | Sodium nitroprusside Emax in aorta of chronically treated rats (SHR-SP isolated aorta; [2]) | leftward-shift of P-VASP concentration-response curve by ODQ (sGC; ODQ 10 μM vs control) [fold] | Emax (sGC; ODQ 10 μM vs control, read-out: augmentation of P-VASP maximal response by ODQ) [%] | Carbachol Emax in aorta of chronically treated rats (SHR-SP isolated aorta; [3]) | Phenylephrine Emax in aorta of chronically treated rats (SHR-SP isolated aorta; [3]) [% KCl] | Sodium nitroprusside Emax in aorta of chronically treated rats (SHR-SP isolated aorta; [3]) | Carbachol Emax in aorta of chronically treated rats (SHR-SP isolated aorta; [4]) | Phenylephrine Emax in aorta of chronically treated rats (SHR-SP isolated aorta; [4]) [% KCl] | Sodium nitroprusside Emax in aorta of chronically treated rats (SHR-SP isolated aorta; [4])
1 | COC(=O)Nc1c(N)nc(-c2nn(Cc3ccccc3F)c3ncccc23)nc1N [BAY 60-4552] | 353 ± 89 | 388 ± 39 | 9.8 | 7 | 3260 | 362 ± 24 | 54 ± 6 % reversal of PE tone | 88 ± 6 | 98 ± 5 % reversal of PE tone | 67 ± 6 % reversal of PE tone | 89 ± 7 | 112 ± 3 % reversal of PE tone | – | – | – | – | – | – | – | –
2 | Cc1cc(-c2ccc(OC(F)(F)F)cc2)ccc1COc1ccccc1-c1cccc(-n2ncc(C(=O)O)c2C(F)(F)F)n1 [GSK2181236A, 1-(6-{2-[({3-methyl-4′-[(trifluoromethyl)oxy]-4-biphenylyl}methyl)oxy]phenyl}-2-pyridinyl)-5-(trifluoromethyl)-1H-pyrazole-4-carboxylic acid] | 12.7 ± 4.7 | 379 ± 26 | – | – | 2.7 ± 0.6 | 502 ± 26 | – | – | – | – | – | – | 4.7 | 32 | 48 ± 14 % reversal of PE tone | 93 ± 8 | 111 ± 3 % reversal of PE tone | 59 ± 4 % reversal of PE tone | 91 ± 8 | 100 ± 2 % reversal of PE tone
